This note sets out measurements from paper PMC11148045, “Structural basis for recognition of 26RFa by the pyroglutamylated RFamide peptide receptor” (Cell Discovery, 2024).

Common to all, as to test: 26RFa-induced calcium mobilization, receptor mutants
Common to all, as to assay type: cell-based

The target of test [1] is T1, QRFPR mutants (Homo sapiens, UniProt Q96P65, C200A).
T1 construct: expressed in transfected cells; host or cells: HEK293, transient transfection by electroporation
The note with it: HEK293, QRFPR C200^ECL2A; HEK293, Fluo-4; mean ± S.E.M., n ≥ 3. How it is done:
(§1) The gene encoding the WT QRFPR, PrPRR, KISS1R, NPFF1R, or NPFF2R was subcloned into the pcDNA3.0 vector with the addition of an N-terminal HA tag. All of the mutations used for functional studies were generated by QuickChange PCR and verified by DNA sequencing.
(§2) HEK293 cells were obtained from ATCC (Manassas, VA, USA) and cultured in DMEM supplemented with 10% (v/v) FBS, 100 mg/L penicillin, and 100 mg/L streptomycin in 5% CO2 at 37 °C. For transient transfection, ~2.5 × 10^6 cells were mixed with 2 µg plasmids in 200 µL transfection buffer, and electroporation was carried out with a Scientz-2C electroporation apparatus (Scientz Biotech, Ningbo, China). The experiments were carried out 24 h after transfection.
(§3) For QRFPR, PrRPR, and KISS1R, HEK293 cells transfected with WT receptor or its mutants were seeded at a density of 4 × 10^4 per well into 96-well culture plates and incubated for 24 h at 37 °C in 5% CO2. For NPFF1R and NPFF2R, plasmids were transfected into HEK293 cells stably expressing Gα16. On the next day, cells were incubated with 2 μmol/L Fluo-4 AM in HBSS supplemented with 5.6 mmol/L D-glucose and 250 μmol/L sulfinpyrazone at 37 °C for 45 min. After washing, cells were added with 50 μL HBSS and incubated at room temperature for 10 min, then 25 μL agonist buffer was dispensed into the well using a FlexStation III microplate reader (Molecular Devices), and intracellular calcium change was recorded at an excitation wavelength of 485 nm and an emission wavelength of 525 nm. EC50 and Emax values for each curve were calculated by Prism 8.0 software (GraphPad Software).

Test [2] addresses T2, QRFPR mutants (Homo sapiens, UniProt Q96P65, D307A).
T2 construct: expressed in transfected cells; host or cells: HEK293, transient transfection by electroporation
The conditions noted are these: HEK293, QRFPR D307^7.27A; HEK293, Fluo-4; mean ± S.E.M., n ≥ 3. How it is done:
as §1, §2, §3

The target of test [3] is T3, QRFPR mutants (Homo sapiens, UniProt Q96P65, Q125A).
T3 construct: expressed in transfected cells; host or cells: HEK293, transient transfection by electroporation
T3 sequence (Q96P65 whole entry Q125A): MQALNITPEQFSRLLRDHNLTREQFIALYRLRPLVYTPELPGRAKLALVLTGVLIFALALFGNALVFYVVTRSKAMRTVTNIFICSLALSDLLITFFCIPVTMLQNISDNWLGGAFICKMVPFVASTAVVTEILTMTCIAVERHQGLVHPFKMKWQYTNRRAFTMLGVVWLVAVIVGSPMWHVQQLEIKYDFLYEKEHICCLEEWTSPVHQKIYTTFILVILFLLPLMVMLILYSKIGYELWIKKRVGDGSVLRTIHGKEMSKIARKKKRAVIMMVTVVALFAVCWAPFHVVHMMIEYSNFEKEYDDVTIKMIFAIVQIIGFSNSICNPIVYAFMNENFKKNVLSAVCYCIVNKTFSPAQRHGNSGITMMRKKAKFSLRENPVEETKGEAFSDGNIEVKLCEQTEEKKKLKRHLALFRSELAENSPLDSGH
The note with it: HEK293, QRFPR Q125^3.32A; HEK293, Fluo-4; mean ± S.E.M., n ≥ 3. How it is done: as §1, §2, §3

Test [4] has as its target T4, QRFPR mutants (Homo sapiens, UniProt Q96P65, N110A).
T4 construct: expressed in transfected cells; host or cells: HEK293, transient transfection by electroporation
The note with it: HEK293, QRFPR N110^23.49A; HEK293, Fluo-4; mean ± S.E.M., n ≥ 3. How it is done:
as §1, §2, §3

The target in test [5] is T5, QRFPR mutants (Homo sapiens, UniProt Q96P65, F322A).
T5 construct: expressed in transfected cells; host or cells: HEK293, transient transfection by electroporation
T5 sequence (Q96P65 whole entry F322A): as the sequence (Q96P65 whole entry Q125A) above, with A125Q, F322A counted along it
The conditions noted are these: HEK293, QRFPR F322^7.43A; HEK293, Fluo-4; mean ± S.E.M., n ≥ 3. How it is done:
as §1, §2, §3

Test [6] addresses T6, QRFPR mutants (Homo sapiens, UniProt Q96P65, F289A).
T6 construct: expressed in transfected cells; host or cells: HEK293, transient transfection by electroporation
How it is done:
as §1, §2, §3

The target in test [7] is T7, QRFPR mutants (Homo sapiens, UniProt Q96P65, T102A).
T7 construct: expressed in transfected cells; host or cells: HEK293, transient transfection by electroporation
T7 sequence (Q96P65 whole entry T102A): as the sequence (Q96P65 whole entry Q125A) above, with T102A, A125Q counted along it
The conditions noted are these: HEK293, QRFPR T102^2.60A; HEK293, Fluo-4; mean ± S.E.M., n ≥ 3. How it is done: as §1, §2, §3

The target in test [8] is T8, QRFPR mutants (Homo sapiens, UniProt Q96P65, L202A).
T8 construct: expressed in transfected cells; host or cells: HEK293, transient transfection by electroporation
T8 sequence (Q96P65 whole entry L202A): as the sequence (Q96P65 whole entry Q125A) above, with A125Q, L202A counted along it
The conditions noted are these: HEK293, QRFPR L202^45.51A; HEK293, Fluo-4; mean ± S.E.M., n ≥ 3. The procedure:
as §1, §2, §3

The target of test [9] is T9, QRFPR mutants (Homo sapiens, UniProt Q96P65, C118A).
T9 construct: expressed in transfected cells; host or cells: HEK293, transient transfection by electroporation
T9 sequence (Q96P65 whole entry C118A): as the sequence (Q96P65 whole entry Q125A) above, with C118A, A125Q counted along it
The note with it: HEK293, QRFPR C118^3.25A; HEK293, Fluo-4; mean ± S.E.M., n ≥ 3. How it is done: as §1, §2, §3

The target in test [10] is T10, QRFPR mutants (Homo sapiens, UniProt Q96P65, I199A).
T10 construct: expressed in transfected cells; host or cells: HEK293, transient transfection by electroporation
T10 sequence (Q96P65 whole entry I199A): as the sequence (Q96P65 whole entry Q125A) above, with A125Q, I199A counted along it
The note with it: HEK293, QRFPR I199^ECL2A; HEK293, Fluo-4; mean ± S.E.M., n ≥ 3. The procedure: as §1, §2, §3

The target of test [11] is T11, QRFPR mutants (Homo sapiens, UniProt Q96P65, H293A).
T11 construct: expressed in transfected cells; host or cells: HEK293, transient transfection by electroporation
T11 sequence (Q96P65 whole entry H293A): as the sequence (Q96P65 whole entry Q125A) above, with A125Q, H293A counted along it
The note with it: HEK293, QRFPR H293^6.55A; HEK293, Fluo-4; mean ± S.E.M., n ≥ 3. The procedure:
as §1, §2, §3

Test [12] deals with T12, QRFPR mutants (Homo sapiens, UniProt Q96P65).
T12 construct: expressed in transfected cells; host or cells: HEK293, transient transfection by electroporation
The procedure:
as §1, §2, §3
T12 sequence (Q96P65 39-431, change not shown): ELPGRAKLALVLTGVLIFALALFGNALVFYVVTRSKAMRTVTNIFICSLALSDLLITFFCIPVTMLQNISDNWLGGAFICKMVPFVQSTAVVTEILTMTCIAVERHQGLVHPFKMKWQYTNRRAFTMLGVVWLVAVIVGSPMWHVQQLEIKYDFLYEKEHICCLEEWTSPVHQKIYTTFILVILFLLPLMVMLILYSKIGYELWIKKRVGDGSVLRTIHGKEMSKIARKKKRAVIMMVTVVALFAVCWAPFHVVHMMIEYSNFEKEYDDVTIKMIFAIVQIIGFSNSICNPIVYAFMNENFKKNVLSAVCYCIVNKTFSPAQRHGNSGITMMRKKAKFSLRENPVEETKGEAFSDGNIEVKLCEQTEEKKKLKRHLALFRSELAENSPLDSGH

Test [13] concerns the target T13, QRFPR mutants (Homo sapiens, UniProt Q96P65, C98A).
T13 construct: expressed in transfected cells; host or cells: HEK293, transient transfection by electroporation
The conditions noted are these: HEK293, QRFPR C98^2.57A; HEK293, Fluo-4; mean ± S.E.M., n ≥ 3. How it is done:
as §1, §2, §3

Test [14] deals with T14, QRFPR mutants (Homo sapiens, UniProt Q96P65, Y190A).
T14 construct: expressed in transfected cells; host or cells: HEK293, transient transfection by electroporation
T14 sequence (Q96P65 whole entry Y190A): as the sequence (Q96P65 whole entry Q125A) above, with A125Q, Y190A counted along it
The note with it: HEK293, QRFPR Y190^ECL2A; HEK293, Fluo-4; mean ± S.E.M., n ≥ 3. The procedure:
as §1, §2, §3

The target in test [15] is T15, QRFPR mutants (Homo sapiens, UniProt Q96P65, I117A).
T15 construct: expressed in transfected cells; host or cells: HEK293, transient transfection by electroporation
T15 sequence (Q96P65 whole entry I117A): as the sequence (Q96P65 whole entry Q125A) above, with I117A, A125Q counted along it
The note with it: HEK293, QRFPR I117^3.24A; HEK293, Fluo-4; mean ± S.E.M., n ≥ 3. The procedure:
as §1, §2, §3

Test [16] concerns the target T16, QRFPR mutants (Homo sapiens, UniProt Q96P65, L104A).
T16 construct: expressed in transfected cells; host or cells: HEK293, transient transfection by electroporation
The conditions noted are these: HEK293, QRFPR L104^2.62A; HEK293, Fluo-4; mean ± S.E.M., n ≥ 3. The procedure: as §1, §2, §3

Test [17] concerns the target T17, QRFPR mutants (Homo sapiens, UniProt Q96P65).
T17 construct: expressed in transfected cells; host or cells: HEK293, transient transfection by electroporation
The conditions noted are these: HEK293, QRFPR Δ1-18; HEK293, Fluo-4; mean ± S.E.M., n ≥ 3. The procedure:
as §1, §2, §3
T17 sequence (Q96P65 19-431, change not shown): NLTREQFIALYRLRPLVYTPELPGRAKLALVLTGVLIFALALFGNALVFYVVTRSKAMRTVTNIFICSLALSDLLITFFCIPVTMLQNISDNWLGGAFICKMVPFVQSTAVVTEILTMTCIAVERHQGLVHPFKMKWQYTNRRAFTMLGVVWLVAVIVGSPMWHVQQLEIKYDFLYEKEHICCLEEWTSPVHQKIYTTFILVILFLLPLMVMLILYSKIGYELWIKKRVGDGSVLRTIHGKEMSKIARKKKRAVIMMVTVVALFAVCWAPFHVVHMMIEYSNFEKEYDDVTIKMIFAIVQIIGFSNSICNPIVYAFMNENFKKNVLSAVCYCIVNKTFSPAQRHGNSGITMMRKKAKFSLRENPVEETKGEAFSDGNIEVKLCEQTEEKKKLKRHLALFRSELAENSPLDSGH

The target of test [18] is T18, QRFPR mutants (Homo sapiens, UniProt Q96P65, E297A).
T18 construct: expressed in transfected cells; host or cells: HEK293, transient transfection by electroporation
T18 sequence (Q96P65 whole entry E297A): as the sequence (Q96P65 whole entry Q125A) above, with A125Q, E297A counted along it
How it is done: as §1, §2, §3

No end group written: not given here.

T6 sequence (Q96P65 whole entry F289A): as the sequence (Q96P65 whole entry Q125A) above, with A125Q, F289A counted along it
T1 sequence (Q96P65 whole entry C200A): as the sequence (Q96P65 whole entry Q125A) above, with A125Q, C200A counted along it
T4 sequence (Q96P65 whole entry N110A): as the sequence (Q96P65 whole entry Q125A) above, with N110A, A125Q counted along it
T2 sequence (Q96P65 whole entry D307A): as the sequence (Q96P65 whole entry Q125A) above, with A125Q, D307A counted along it
T13 sequence (Q96P65 whole entry C98A): as the sequence (Q96P65 whole entry Q125A) above, with C98A, A125Q counted along it
T16 sequence (Q96P65 whole entry L104A): as the sequence (Q96P65 whole entry Q125A) above, with L104A, A125Q counted along it

As to ASGPLGTLAEELSSYSRRKGGFSFRF-NH2 [26RFa], the Emax at QRFPR mutants [1] was found to be 88.5 ± 1.2%; on QRFPR mutants [2] it was 106 ± 0.64%; at QRFPR mutants [3], 14.1 ± 1.8%; on QRFPR mutants [4], 98.6 ± 2.3%; on QRFPR mutants [5] it was 11.1 ± 0.26%; at QRFPR mutants [6] (HEK293, QRFPR F289^6.51A, HEK293, Fluo-4, mean ± S.E.M., n ≥ 3) it was 54.4 ± 1.4%. Also, the maximal effect (Emax) at QRFPR mutants [7] was determined as 94 ± 1.4%; on QRFPR mutants [8], 101 ± 2.3%; on QRFPR mutants [9], 1.43 ± 0.55%; at QRFPR mutants [10], 89.7 ± 2.3%; at QRFPR mutants [11], 95.5 ± 1.6%; at QRFPR mutants [12] (HEK293, QRFPR Δ1-38, HEK293, Fluo-4, mean ± S.E.M., n ≥ 3), 14.7 ± 1.5%. For the same substance, the Emax at QRFPR mutants [13] worked out at 48.4 ± 0.88%; on QRFPR mutants [14], 23.6 ± 0.22%; at QRFPR mutants [15], 75.1 ± 3.1%; at QRFPR mutants [16], 109 ± 0.69%; at QRFPR mutants [17] it was 53.2 ± 0.75%; at QRFPR mutants [18] (HEK293, QRFPR E297^6.59A, HEK293, Fluo-4, mean ± S.E.M., n ≥ 3), 107 ± 0.8%. For the same substance, the “effect of mutation on 26RFa activity” value was “dramatic decrease in the activity of 26RFa” at QRFPR mutants [6] (QRFPR F289^6.51 to alanine) and “almost did not affect 26RFa activity” at QRFPR mutants [18] (QRFPR 6.59 to alanine (printed D^6.59)). Moreover, the “peptide-induced QRFPR activity” value at QRFPR mutants [12] (QRFPR Δ1–38 (entire N-terminus truncated)) is listed as “abolished the peptide-induced QRFPR activity”.
